Source: ChEMBL document CHEMBL3804762, “Novel indoleflutimide heterocycles with activity against influenza PA endonuclease and hepatitis C virus” (Medchemcomm, 2016)
Calls of active or inactive are those of the source. The rule behind the calls is not given here.

Assays:
[1] = molecular target: T1, Polymerase acidic protein (Influenza A virus (strain A/X-31 H3N2), UniProt Q9IQ47); assay: Inhibition of recombinant Influenza A/X-31 virus PA (N-terminal amino acid residue 1-217) transfected in Escherichia coli assessed as endonucleolytic digestion using single-stranded circular DNA plasmid M13mp18 after 2 hrs by ethidium bromide staining based agarose gel electrophoresis; parameters: species or system Influenza A virus (A/X-31(H3N2))
[2] = Cytotoxicity against HEK293T cells assessed as effect on cell morphology after 24 hrs by microscopic analysis; assay type: cell-based, HEK-293T; settings: human
[3] = molecular target: T1, Polymerase acidic protein; assay: Inhibition of recombinant Influenza A/X-31 virus PA infected in HEK293T cells after 2 hrs by vRNP reconstitution assay; assay type: cell-based, Influenza A virus (A/X-31(H3N2)), HEK-293T
[4] = Cytotoxicity against human Huh5-2 cells assessed as cell viability after 72 hrs by Alamar blue dye based colorimetric analysis; parameters: species or system Huh-5-2; settings: read-out: LC50
Hepatitis C virus [5] = assay: Antiviral activity against HCV Con1 infected in human Huh5-2 cells haboring firefly luciferase expressing subgenomic replicon of HCV genotype 1b after 72 hrs by luciferase reporter gene assay; assay type: functional, organism-based, Hepacivirus hominis; settings: isolate Con1, Huh-5-2, 72 h
[6] = Selectivity index, ratio of LC50 for human Huh5-2 cells to EC50 for HCV Con1 infected in human Huh5-2 cells haboring firefly luciferase expressing subgenomic replicon of HCV genotype 1b; parameters: species or system Huh-5-2
[7] = Dissociation constant, pKa of compound; assay type: physicochemical
[8] = Lipophilicity, log D of compound; assay type: physicochemical; settings: octanol/water
[9] = molecular target: Polymerase acidic protein (Influenza A virus (A/Puerto Rico/8/1934(H1N1)), UniProt P03433); assay: Inhibition of Influenza A/PR/8/34 virus PA endonuclease by cap dependent RNA polymerase assay
[10] = molecular target: T2, Nonstructural protein 5A (Hepatitis C virus) (UniProt Q5L478); assay: Inhibition of HCV NS5A in Huh5-2 replicon cells at 100 uM propidium iodide staining based confocal microscopic analysis; assay type: cell-based; settings: Hepacivirus hominis
T2 sequence (whole entry): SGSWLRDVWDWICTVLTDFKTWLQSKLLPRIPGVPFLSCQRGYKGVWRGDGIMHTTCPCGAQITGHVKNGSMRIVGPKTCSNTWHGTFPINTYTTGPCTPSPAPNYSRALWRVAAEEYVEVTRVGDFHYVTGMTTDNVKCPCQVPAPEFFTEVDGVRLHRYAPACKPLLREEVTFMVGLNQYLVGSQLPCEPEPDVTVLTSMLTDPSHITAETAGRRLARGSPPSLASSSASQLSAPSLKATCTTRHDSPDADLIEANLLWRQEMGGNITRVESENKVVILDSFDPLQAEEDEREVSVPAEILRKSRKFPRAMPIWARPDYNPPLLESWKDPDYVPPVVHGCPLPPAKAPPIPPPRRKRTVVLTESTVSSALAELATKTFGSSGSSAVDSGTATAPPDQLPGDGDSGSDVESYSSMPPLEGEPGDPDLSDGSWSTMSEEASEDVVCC

Hepatitis C virus [11] = assay: Antiviral activity against HCV Con1 infected in human Huh5-2 cells haboring firefly luciferase expressing subgenomic replicon of HCV genotype 1b at 100 uM after 7 days by luciferase reporter gene assay; assay type: functional, organism-based; settings: Hepacivirus hominis, isolate Con1, Huh-5-2

SMILES | IC50 [1] [µM] | MCC at 24 h [2] [µM] | EC50 [3] [µM] | CC50 at 72 h [4] [µM] | EC50 (Hepatitis C virus [5]) [µM] | Selectivity Index [6] | pKa [7] | logD [8] | IC50 [9] [µM] | inhibition [10] | Activity (Hepatitis C virus [11])
O=C1Cn2c(cc3cc(F)ccc32)C(=O)N1O | 17.3 | ≥ 500 | > 500 | > 200 | 83.8 | >2.4 | 7.27 | 0.71 | – | – | –
O=C1Cc2ccccc2CC(=O)N1O | – | – | – | – | – | – | – | – | > 500 | – | –
O=C(O)C(=O)CC(=O)c1ccccc1 | 5.4 | – | – | > 200 | > 200 | – | 2.85 | -1.73 | – | – | –
O=C1Cn2c(cc3ccccc32)C(=O)N1 | > 500 | – | – | > 200 | > 200 | – | 9.3 | 0.75 | – | – | –
COc1ccc2c(c1)cc1n2CC(=O)N(O)C1=O | 23 | ≥ 500 | 48 | > 200 | > 200 | – | 7.27 | 0.41 | – | – | –
O=C1Cn2c(cc3ccccc32)C(=O)N1O | 12.7 | ≥ 500 | 297 | > 200 | 126 | >1.6 | 7.27 | 0.57 | – | – | –
O=C1Cn2c(cc3cc(O)ccc32)C(=O)N1O | 29.2 | ≥ 500 | 75 | > 200 | > 200 | – | 7.27 | 0.26 | – | – | –
O=C1Cn2c(cc3cc(Cl)ccc32)C(=O)N1O | 26.9 | ≥ 500 | 114 | > 200 | 10.5 | >19.1 | 7.27 | 1.17 | – | Active | inactive
